Test [1] deals with Fluc-mRNA (luciferase expression). The experiment in a line: In vivo transfection efficiency of Fluc-mRNA lipid nanoparticles after intramuscular injection. The arrangement: species or system mice. To be noted: for Intramuscular injection (PL/MC3) expression strength level: ratio of expression PL/MC3; for in vivo transfection (expression, FIG. 5): weight ratio lipid nanoparticle/RNA 10:1, DOPE or DSPC group; for in vivo transfection (expression, FIG. 5) / expression in vivo compared with control MC3: 3 μg Fluc-mRNA/mouse; for expression in vivo compared with control MC3 / enhancement of in vivo expression with respect to control MC3: DOPE group, weight ratio 10:1; for enhancement of in vivo expression with respect to control MC3: 3 g Fluc-mRNA/mouse. On the procedure:
6 h after intramuscular injection of mRNA LNPs, mice were injected intraperitoneally with 0.2 mL […] (20 mg/mL PBS solution). After 10 min, mice were anesthetized with isoflurane in oxygen in a ventilated anesthesia room and imaged with an imaging system (IVIS, PerkinElmer), and luminescence was quantified using Living Image software (PerkinElmer).

In another test the test system is white adipocyte. The experiment in a line: White adipocyte administration, expression relative to SM102. Format: cell-based. The conditions noted are these: for White adipocyte administration (PL/SM102) expression strength level: ratio of expression PL/SM102; for expression compared with control SM102: white adipocyte administration. The source says:
(§1) Finally, the expression levels of lipid nanoparticles with a plurality of tertiary amine groups from the embodiments of the present disclosure after intramuscular injection, white adipocyte administration, and intraperitoneal injection are summarized, and compared with lipid nanoparticles prepared from commercially available cationic lipids MC3 and SM102. […] However, the expression rates of the phosphatidylamine lipids with a plurality of tertiary amine groups from embodiments of the present disclosure are higher than that of SM102.

The next test deals with adipose tissue. Put plainly: Intraperitoneal injection of Fluc-mRNA LNPs, expression and distribution. Format: in vivo, mice. To be noted: for Intraperitoneal injection (PL/SM102) expression strength level: ratio of expression PL/SM102; for expression compared with control SM102: intraperitoneal injection. On the procedure: FIG. 10 illustrates the effect of Fluc-mRNA LNPs composed of different structural cationic lipids on the mRNA delivery efficiency after intraperitoneal administration according to some embodiments of the present disclosure. Targeting and expression of PL lipids on adipose tissue after intraperitoneal administration is also evaluated. […] That is to say, the PL lipid structure with the plurality of tertiary amino group structures may enhance the selective targeting of visceral adipocytes. […]
as §1

A short description of test [2]: Summary of the strongest expressions over the administration routes. The conditions noted are these: strongest level of the three administrations.
Source text: as §1

With `CCCCC/C=C\C/C=C\CCCCCCCCOP(=O)(NCCCN(CCCN(CC(O)CCCCCCCCCC)CC(O)CCCCCCCCCC)CC(O)CCCCCCCCCC)OCCCCCCCC/C=C\C/C=C\CCCCC` (stereo not shown) [PL18], in test [1], the “Intramuscular injection (PL/MC3) expression strength level” value (“Intramuscular injection” for short) is on record as “A (A: ≥2)” and the “in vivo transfection (expression, FIG. 5)” value (from here on “in vivo transfection”) is “expressed”. For the same molecule, the “White adipocyte administration (PL/SM102) expression strength level” value (“White adipocyte administration” for short) in the test with white adipocyte is “C (C: ≥0.1 and <1)”. Also, in the test with adipose tissue, the “Intraperitoneal injection (PL/SM102) expression strength level” value (“Intraperitoneal injection” for short) was “D (D: <0.1)”. Also, the “Summary of the strongest expressions” value in test [2] is recorded as “A (A: ≥2)”.
Consider `CCCCC/C=C\C/C=C\CCCCCCCCOP(=O)(NCCCN(CCCCCCCCCCCC)CCc1ccc(CCN(CCCCCCCCCCCC)CCCCCCCCCCCC)cc1)OCCCCCCCC/C=C\C/C=C\CCCCC` [PL22], for which, in the test on white adipocyte, the “White adipocyte administration” value is “C (C: ≥0.1 and <1)”. Besides, the “Intraperitoneal injection” value in the test with adipose tissue is “D (D: <0.1)”. Moreover, in test [2], the “Summary of the strongest expressions” value was “C (C: ≥0.1 and <1)”.
Turning to `CCCCC/C=C\C/C=C\CCCCCCCCOP(=O)(NCCCN1CCN(CCCN(CC(O)CCCCCCCCCC)CC(O)CCCCCCCCCC)CC1)OCCCCCCCC/C=C\C/C=C\CCCCC` (stereo not shown) [PL23], in test [1], the “Intramuscular injection” value was “A (A: ≥2)” and the “in vivo transfection” value is on record as “expressed”. For the same molecule, the “White adipocyte administration” value in the test with white adipocyte is “C (C: ≥0.1 and <1)”. Moreover, the “Intraperitoneal injection” value in the test with adipose tissue is “C (C: ≥0.1 and <1)”. Besides, in test [2], the “Summary of the strongest expressions” value is given as “A (A: ≥2)”.
For the molecule `CCCCCCCCC(CCCCCCCC)OC(=O)CCCCCCCOP(=O)(NCCCN1CCN(CCCN(CCCCCCCC(=O)OC(CCCCCCCC)CCCCCCCC)CCCCCCCC(=O)OC(CCCCCCCC)CCCCCCCC)CC1)OCCCCCCCC(=O)OC(CCCCCCCC)CCCCCCCC` [PL38], the “White adipocyte administration” value in the test on white adipocyte was “C (C: ≥0.1 and <1)”. For the same molecule, the “Intraperitoneal injection” value with adipose tissue is given as “D (D: <0.1)”. Also, the “Summary of the strongest expressions” value in test [2] is “C (C: ≥0.1 and <1)”.
Regarding `CCCCCCCCCCCCN(CCCCCCCCCCCC)CCCN1CCN(CCCNP(=O)(OCCCCCCOC(=O)C(CC)CCCC)OCCCCCCOC(=O)C(CC)CCCC)CC1` (stereo not shown) [PL53], in test [1], the “expression in vivo compared with control MC3” value is listed as “better than that of control MC3”; the “enhancement of in vivo expression with respect to control MC3” value (“enhancement of in vivo expression” below) was “an order of magnitude enhancement”; the “Intramuscular injection” value is recorded as “A (A: ≥2)”; the “in vivo transfection” value is on record as “expressed”. In the test on white adipocyte, the “White adipocyte administration” value is “B (B: ≥1 and <2)”; the “expression compared with control SM102” value is “superior to that of the control SM102”. For the same molecule, the “Intraperitoneal injection” value with adipose tissue was “C (C: ≥0.1 and <1)”. Moreover, the “Summary of the strongest expressions” value in test [2] is “A (A: ≥2)”.
Consider `CCCCCCCCCCCCN(CCCCCCCCCCCC)CCCN1CCN(CCCNP(=O)(OCCCCCCOC(=O)C(CC)CCCCCC)OCCCCCCOC(=O)C(CC)CCCCCC)CC1` (stereo not shown) [PL54], for which, in test [1], the “Intramuscular injection” value is “A (A: ≥2)” and the “in vivo transfection” value is given as “expressed”. Also, in the test on white adipocyte, the “White adipocyte administration” value is “B (B: ≥1 and <2)”; the “expression compared with control SM102” value is “superior to that of the control SM102”. In the test with adipose tissue, the “expression compared with control SM102” value is given as “superior to that of the control SM102”; the “Intraperitoneal injection” value is “B (B: ≥1 and <2)”. Also, the “Summary of the strongest expressions” value in test [2] is given as “A (A: ≥2)”.
`CCCCCCCCCCCCN(CCCCCCCCCCCC)CCCN1CCN(CCCNP(=O)(OCCCCCCOC(=O)C(CCCCCC)CCCCCCCC)OCCCCCCOC(=O)C(CCCCCC)CCCCCCCC)CC1` (stereo not shown) [PL55]: in test [1], the “expression in vivo compared with control MC3” value is “better than that of control MC3”; the “enhancement of in vivo expression” value is recorded as “an order of magnitude enhancement”; the “Intramuscular injection” value is listed as “A (A: ≥2)”; the “in vivo transfection” value is on record as “expressed”. Also, in the test with white adipocyte, the “White adipocyte administration” value was “B (B: ≥1 and <2)”; the “expression compared with control SM102” value is listed as “superior to that of the control SM102”. Moreover, in the test on adipose tissue, the “expression compared with control SM102” value is given as “superior to that of the control SM102”; the “Intraperitoneal injection” value was “B (B: ≥1 and <2)”. Further, the “Summary of the strongest expressions” value in test [2] is “A (A: ≥2)”.
With `CCCCCCCCCCCCN(CCCCCCCCCCCC)CCCN1CCN(CCCNP(=O)(OCCCCCCCCOC(=O)C(CC)CCCC)OCCCCCCCCOC(=O)C(CC)CCCC)CC1` (stereo not shown) [PL56], in test [1], the “expression in vivo compared with control MC3” value is given as “better than that of control MC3”; the “enhancement of in vivo expression” value is “an order of magnitude enhancement”; the “Intramuscular injection” value was “A (A: ≥2)”; the “in vivo transfection” value is recorded as “expressed”. Also, in the test on white adipocyte, the “White adipocyte administration” value was “B (B: ≥1 and <2)”; the “expression compared with control SM102” value is given as “superior to that of the control SM102”. In the test with adipose tissue, the “expression compared with control SM102” value was “superior to that of the control SM102” and the “Intraperitoneal injection” value is reported as “A (A: ≥2)”. Besides, in test [2], the “Summary of the strongest expressions” value is “A (A: ≥2)”.
Consider `CCCCCCCCCCCCN(CCCCCCCCCCCC)CCCN1CCN(CCCNP(=O)(OCCCCCCCCOC(=O)C(CC)CCCCCC)OCCCCCCCCOC(=O)C(CC)CCCCCC)CC1` (stereo not shown) [PL57], for which, in test [1], the “expression in vivo compared with control MC3” value is “better than that of control MC3”; the “enhancement of in vivo expression” value was “an order of magnitude enhancement”; the “Intramuscular injection” value is on record as “A (A: ≥2)”; the “in vivo transfection” value was “expressed”. In the test with white adipocyte, the “White adipocyte administration” value is “B (B: ≥1 and <2)”; the “expression compared with control SM102” value is “superior to that of the control SM102”. Besides, in the test on adipose tissue, the “expression compared with control SM102” value is “superior to that of the control SM102” and the “Intraperitoneal injection” value was “A (A: ≥2)”. Moreover, in test [2], the “Summary of the strongest expressions” value was “A (A: ≥2)”.
Turning to `CCCCCCCCCCCCN(CCCCCCCCCCCC)CCCN1CCN(CCCNP(=O)(OCCCCCCCCOC(=O)C(CCCCCC)CCCCCCCC)OCCCCCCCCOC(=O)C(CCCCCC)CCCCCCCC)CC1` (stereo not shown) [PL58], in test [1], the “Intramuscular injection” value is listed as “A (A: ≥2)” and the “in vivo transfection” value is reported as “expressed”. For the same molecule, the “White adipocyte administration” value with white adipocyte is “C (C: ≥0.1 and <1)”. Further, the “Intraperitoneal injection” value in the test with adipose tissue is “C (C: ≥0.1 and <1)”. For the same molecule, the “Summary of the strongest expressions” value in test [2] was “A (A: ≥2)”.
As for `CCCCC/C=C\C/C=C\C/C=C\C/C=C\CCCC(=O)OCCCCCCOP(=O)(NCCCN1CCN(CCCN(CCCCCCCCCCCC)CCCCCCCCCCCC)CC1)OCCCCCCOC(=O)CCC/C=C\C/C=C\C/C=C\C/C=C\CCCCC` [PL59], in the test on white adipocyte, the “White adipocyte administration” value is “A (A: ≥2)” and the “expression compared with control SM102” value was “superior to that of the control SM102”. In the test with adipose tissue, the “Intraperitoneal injection” value is recorded as “D (D: <0.1)”. For the same molecule, the “Summary of the strongest expressions” value in test [2] is on record as “A (A: ≥2)”.
`CC/C=C\C/C=C\C/C=C\C/C=C\C/C=C\CCCC(=O)OCCCCCCOP(=O)(NCCCN1CCN(CCCN(CCCCCCCCCCCC)CCCCCCCCCCCC)CC1)OCCCCCCOC(=O)CCC/C=C\C/C=C\C/C=C\C/C=C\C/C=C\CC` [PL60]: the “White adipocyte administration” value in the test on white adipocyte was “C (C: ≥0.1 and <1)”. The “Intraperitoneal injection” value in the test with adipose tissue is given as “D (D: <0.1)”. The “Summary of the strongest expressions” value in test [2] is “C (C: ≥0.1 and <1)”.
Consider `CCC/C=C\C/C=C\C/C=C\C/C=C\C/C=C\C/C=C\CCC(=O)OCCCCCCOP(=O)(NCCCN1CCN(CCCN(CCCCCCCCCCCC)CCCCCCCCCCCC)CC1)OCCCCCCOC(=O)CC/C=C\C/C=C\C/C=C\C/C=C\C/C=C\C/C=C\CCC` [PL61], for which the “White adipocyte administration” value with white adipocyte was “C (C: ≥0.1 and <1)”. In addition, the “Intraperitoneal injection” value in the test with adipose tissue was “D (D: <0.1)”. Besides, in test [2], the “Summary of the strongest expressions” value was “C (C: ≥0.1 and <1)”.
For the molecule `CCCCCCCCCCC(O)CN(CCCN1CCN(CCCNP(=O)(OCCCCCCCCOC(=O)C(CC)CCCC)OCCCCCCCCOC(=O)C(CC)CCCC)CC1)CC(O)CCCCCCCCCC` (stereo not shown) [PL78], in the test on white adipocyte, the “White adipocyte administration” value was “B (B: ≥1 and <2)”; the “expression compared with control SM102” value was “superior to that of the control SM102”. Besides, in the test on adipose tissue, the “expression compared with control SM102” value is given as “superior to that of the control SM102”; the “Intraperitoneal injection” value was “B (B: ≥1 and <2)”. Besides, the “Summary of the strongest expressions” value in test [2] was “B (B: ≥1 and <2)”.
For `CC/C=C\C/C=C\C/C=C\C/C=C\C/C=C\CCCC(=O)OCCCCCCOP(=O)(NCCCN1CCN(CCCN(CC(O)CCCCCCCCCC)CC(O)CCCCCCCCCC)CC1)OCCCCCCOC(=O)CCC/C=C\C/C=C\C/C=C\C/C=C\C/C=C\CC` (stereo not shown) [PL79], in the test on white adipocyte, the “White adipocyte administration” value is “B (B: ≥1 and <2)”; the “expression compared with control SM102” value is given as “superior to that of the control SM102”. Moreover, the “Intraperitoneal injection” value in the test with adipose tissue was “C (C: ≥0.1 and <1)”. Also, the “Summary of the strongest expressions” value in test [2] is “B (B: ≥1 and <2)”.

Source of the values: US20260085081A1, “PHOSPHATIDYLAMINE COMPOUNDS INCLUDING A PLURALITY OF TERTIARY AMINO GROUP STRUCTURES AND COMPOSITIONS THEREOF” (PEKING UNIVERSITY, priority 2022, published 2026).
